The text below walks through data of paper PMC7816212 (Nature, 2020).

Holding throughout (type): binding
The target in experiment [1] is BCL6 (Homo sapiens, UniProt A5PL18). Put plainly: cryo-EM of the BCL6 filament.
The target in experiment [2] is BCL6 (Homo sapiens, UniProt P41182, E41A). The experiment can be described thus: competitive TR-FRET, displacement of FITC-BCoR peptide. (Time-resolved FRET reads energy transfer from a long-lived donor to a nearby acceptor.)
The target of experiment [3] is BCL6 (Homo sapiens, UniProt P41182). The experiment is described as above.

For the compound `CNC(=O)COc1cc2cc(Nc3nc(N4C[C@H](C)C[C@H](C)C4)ncc3Cl)ccc2n(C)c1=O` [BI-3802], at BCL6 [1], a half-maximal response (EC50) required 64 nM. The “competitive TR-FRET, displacement of FITC-BCoR peptide” value on BCL6 [2] was “the E41A substitution did not impair drug binding to BCL6 (Extended Data Fig. 4f)”. On to `CNC(=O)COc1cc2cc(Nc3nc(N4CCC(C(=O)N(C)C)CC4)ncc3Cl)cc(OC)c2n(C)c1=O` [BI-3812], for which the “competitive TR-FRET, displacement of FITC-BCoR peptide” value at BCL6 [3] is “despite comparable affinity of both BI-3802 and BI-3812 to BCL6 (Extended Data Fig. 8h)”.
